Two compounds from patent publication US4311699A, “Aminoacid derivatives of cephalosporin compounds” (priority 1980, dated 1982) can be followed below.

What all share (test): in vitro antibacterial activity, minimal inhibitory concentration
Assay type in all cases: cell-based

The subject of one experiment is Staph. aureus S18733. The following applies: Staphylococcus aureus. The text has this:
(§1) The compounds of the invention are new chemical compounds that are used as pharmacological agents and especially as broad spectrum antibacterial agents. They are active in vitro against strains of both gram-positive and gram-negative bacteria.
(§2) Minimal Inhibitory Concentration (μg/ml)

Another experiment relates to Pseudomonas UI 18. The following applies: UI18; Pseudomonas UI 18, in vitro.
Description: as §1, §2

The test system of the next experiment is Prot. vulg.
Description: as §1, §2

For another experiment, the system named is Pseudomonas BRK 12-4-4. The conditions noted are these: BRK1244; Pseudomonas BRK 12-4-4, in vitro.
Description: as §1, §2

The next experiment has as its system Staph. aureus UC-76. The following applies: Staphylococcus aureus, UC76; Staph. aureus UC-76, in vitro.
Description: as §1, §2

Another experiment deals with Strep. fec.
Description: as §1, §2

A further experiment deals with Klebs. pneu.
Description: as §1, §2

In another experiment the test system is Serr. marces.
Description: as §1, §2

The test system of the next experiment is Entero. cloacae. The following applies: Enterobacter cloacae.
Description: as §1, §2

A further experiment concerns E. coli Brig. The conditions noted are these: Escherichia coli.
Description: as §1, §2

Another experiment has as its system E. coli Vogel. The conditions noted are these: Escherichia coli.
Description: as §1, §2

For the next experiment, the system named is Pseudomonas #28. The conditions noted are these: Pseudomonas #28, in vitro; read-out: Minimal Inhibitory Concentration.
Description: as §1, §2

Values after ≈ are worked out from the molar mass of the structure shown.

Consider `CC(=O)NC(C)C(=O)Nc1ccc(-c2ncc(C(=O)N[C@@H](C(=O)NC3C(=O)N4C(C(=O)O)=C(CSc5nnnn5C)CSC34)c3ccccc3)c(O)n2)cc1` (mixture of isomers) [Example 24, N-[2-[4-(N-Acetyl-DL-alanylamino)phenyl]-4-hydroxy-5-pyrimidinylcarbonyl]-7-[D-2-amino-2-phenylacetamido]-3-[[(1-methyl-1H-tetrazol-5-yl)thio]methyl]-3-cephem-4-carboxylic acid], for which the MIC against Staph. aureus S18733 is 3.1 µg/mL; in the experiment on Pseudomonas UI 18 it was 6.3 µg/mL; against Prot. vulg. it was 25 µg/mL; against Pseudomonas BRK 12-4-4, 12.5 µg/mL; in the experiment on Staph. aureus UC-76 it was 1.6 µg/mL; in the experiment on Strep. fec., 50 µg/mL. The MIC in the experiment on Klebs. pneu. turned out to be 1.6 µg/mL; with Serr. marces., 50 µg/mL; in the experiment on Entero. cloacae, 12.5 µg/mL; against E. coli Brig, 12.5 µg/mL; against E. coli Vogel, 3.1 µg/mL; with Pseudomonas #28, 6.3 µg/mL.

For `CC(=O)NCCCC(=O)Nc1ccc(-c2ncc(C(=O)N[C@@H](C(=O)NC3C(=O)N4C(C(=O)O)=C(CSc5nnnn5C)CSC34)c3ccccc3)c(O)n2)cc1` (stereo partly drawn) [Example 27, N-[2-[4-(N-Acetyl-aminobutyrylamino)phenyl]-4-hydroxy-5-pyrimidinylcarbonyl]-7-[D-2-amino-2-phenylacetamido]-3-[[(1-methyl-1H-tetrazol-5-yl)thio]methyl]-3-cephem-4-carboxylic acid], the MIC against Staph. aureus S18733 was determined as 6.3 µg/mL (≈ 7.86 µM); against Pseudomonas UI 18, 6.3 µg/mL (≈ 7.86 µM); against Prot. vulg., 12.5 µg/mL (≈ 15.6 µM); against Pseudomonas BRK 12-4-4, 12.5 µg/mL (≈ 15.6 µM); with Staph. aureus UC-76, 1.6 µg/mL (≈ 2 µM); in the experiment with Strep. fec. it was 25 µg/mL (≈ 31.2 µM). Also, the MIC in the experiment on Klebs. pneu. came to 1.6 µg/mL (≈ 2 µM); in the experiment on Serr. marces., 25 µg/mL (≈ 31.2 µM); in the experiment on Entero. cloacae it was 6.3 µg/mL (≈ 7.86 µM); in the experiment on E. coli Brig, 12.5 µg/mL (≈ 15.6 µM); against E. coli Vogel it was 1.6 µg/mL (≈ 2 µM); in the experiment with Pseudomonas #28, 3.1 µg/mL (≈ 3.87 µM).
